Source: patent US20220017833A1, “Methods and Compositions for Scavenging Sulfides from Hydrocarbon Fluids and Aqueous Streams” (Nexgen Oilfield Chemicals, LLC, priority 2019, published 2022)

Tests used:
[1] = Short Reaction Time Capacity Test; settings: for contribution to the BT capacity (coefficient of best fit equation) / contribution to the FD capacity (coefficient of best fit equation): Short Reaction Time Capacity Test, Table 2 compositions
Description: (§1) Referring now to FIG. 1, therein is schematically depicted a sulfide scavenger testing system 100 comprising a gas source 2, a flow regulator 4, gas treatment vessel 6, and a sulfide measurement device 8. In one testing embodiment, gas (not shown) is flowed from gas source 2 via gas feed piping 10 into flow regulator 4, which regulates gas flow to gas treatment vessel 6 via regulated gas feed piping 12. The regulated gas flows into gas treatment vessel 6 via a bottom inlet 14 thereof, where it comes into contact with a volume of liquid 16 comprising a sulfide scavenger system (not separately labeled). The gas, having been treated by the liquid, flows out of a top end 18 of gas treatment vessel 6 and flows into sulfide measurement device 8 via treated gas outlet piping 20.
In one embodiment, gas flow from the flow regulator 4 is controlled such that the gas is flowed into the gas treatment vessel 6 at a flow rate of 100 mL/min. up to 500 mL/min. In one embodiment, a gas sparging device, such as a fine pore frit (not shown), is utilized to better distribute the gas into the scavenger liquid. In one embodiment, the gas treatment vessel 6 contains about 20 g of a liquid H2S scavenger, such as one or more diaminols/diaminacetals in a chemical system as described above. In one aspect, to the extent possible, H2S and/or CO2 are scavenged from the gas by the scavenger and the treated (“sweet”) gas exits top end 18 of treatment vessel 6. In one embodiment, sulfide measurement device 8 monitors the concentration of H2S leaving treatment vessel 6. in the gas phase. In other embodiments (not shown), a CO2 measurement device may be similarly employed to monitor the concentration of CO2 leaving treatment vessel 6 in the gas phase.
(§2) In one embodiment, gas is flowed through sulfide scavenger testing system 100 until the outlet H2S concentration reaches a 4,000 ppm target, at which point the test is concluded. This relative time duration before the target is reached is used to compare H2S scavenger capacity given the kinetics of each sulfide scavenger system. The longer the duration, the better the capacity.
(§3) The fine bubbles produced rise slowly, providing plenty of time, plenty of surface area, and a short path through which the H2S must diffuse to the scavenger in the liquid 16. Detector 8 on the outlet line 20 is used to measure H2S concentration in the exiting gas. The times to first detection (FD), at a threshold of 15 ppm, and to complete breakthrough (BT), at the detector saturation of 4000 ppm (0.4%), are recorded. This test is designed to measure the effective scavenging capacity in applications with long contact times.
This test is the same as the Long Reaction Time Capacity Test, but without the gas sparging device, so as to produce larger bubbles, and at a higher feed rate of 200 mL/min, after the first 8 minutes at 100 mL/min. The larger bubbles rise quickly through the liquid 16, providing little time, little surface area, and a long path through which the H2S must diffuse to the scavenger in the liquid. This test is designed to measure the effective scavenging capacity in applications with short contact times. It is far more reaction rate dependent than the Long Reaction Time Capacity and so is a more critical and differentiating test.
With triazine, one H2S reacts twice with the same molecule of triazine, replacing one amine, so the rate is “first order”, meaning proportional to the concentration of triazine.

[2] = Long Reaction Time Capacity Test
Description: as §1
In one embodiment, the gas contained in gas source 2 consists substantially of about 15% H2S, and about 3% CO2, with the remainder being Methane. In one embodiment, gas flow from the flow regulator 4 is controlled such that the gas is flowed into the gas treatment vessel 6 at a flow rate of 100 mL/min. up to 500 mL/min. In one embodiment, a gas sparging device, such as a fine pore frit (not shown), is utilized to better distribute the gas into the scavenger liquid. In one embodiment, the gas treatment vessel 6 contains about 20 g of a liquid H2S scavenger, such as one or more diaminols/diaminacetals in a chemical system as described above. In one aspect, to the extent possible, H2S and/or CO2 are scavenged from the gas by the scavenger and the treated (“sweet”) gas exits top end 18 of treatment vessel 6. In one embodiment, sulfide measurement device 8 monitors the concentration of H2S leaving treatment vessel 6. in the gas phase. In other embodiments (not shown), a CO2 measurement device may be similarly employed to monitor the concentration of CO2 leaving treatment vessel 6 in the gas phase.
as §2
as §3, with “In this test, methane containing 15% H2S and 3% CO2 by weight is sparged via a fine pore frit (not shown) at 100 mL/min through a column of 20 g of scavenger solution (See FIG. 1). The fine” for “The fine”
Note that the true total capacity of a scavenger with infinite time to react is simply equal to the stoichiometry of the reaction—the moles of H2S consumable per mole of scavenging molecule, which can be calculated. This Long Reaction Time Capacity measurement falls short of that ultimate stoichiometric capacity and so is still reaction rate dependent, just less so than the Short Reaction Time Capacity Test.

[3] = octanol-water partition logarithm; source not stated; cited from earlier work
[4] = Solution Homogeneity Test; type: physicochemical; settings: Table 6, GID, water and alcohols, % composition
Description: In one aspect, as two-phase reaction products are problematic, scavenger system homogeneity is desired. The two phases could be emulsified or otherwise finely dispersed, but in practice, even fine, seemingly stable dispersions eventually separate or stratify in extended storage or critical use and are not robust enough for practical use. They are not allowed, for example, to be fed through capillaries for fear of plugging them. In this pass/fail test, a sample is held up for visual inspection in a backlit clear vial. A clear, single-phase, homogeneous solution is a pass. Anything else is a fail.

[5] = 20 g test, Eq/test Triazine 0.068, GIDAc 0.157, GIDA 0.076 (7.50 g MeOH, 2.50 g BuOH)
[6] = 20 g test, Triazine 7.50 g + 12.50 g water, GIDAc 11.00 g as GID, 6.00 g MeOH, 3.00 g BuOH, GIDA 6.68 g as GID, 3.32 g water, 7.50 g MeOH, 2.50 g BuOH
[7] = 20 g test, Eq/test Triazine 0.068, GIDAc 0.185, GIDA 0.076
[8] = 20 g test, Triazine 7.50 g + 12.50 g water, GIDAc 13.00 g as GID + 7.00 g MeOH, GIDA 6.68 g as GID, 3.32 g water, 8.00 g MeOH, 2.00 g BuOH

For `OCCN1CN(CCO)CN(CCO)C1` [Triazine, reference compound], the “Min/Eq BT” value [1, 5] was 380 Min/Eq, the “Min/Eq FD” value [1, 5] was 365 Min/Eq and the “Min to BT” value [1, 6] was 26 min. The “Min to FD” value [1, 6] was 25 min, the “molar capacity at short reaction times (comparison, accounting for molar concentration)” value ([1]; Graph 1 (FIG. 3)) was “lower molar capacity at short reaction times” and the “Min/Eq BT” value [2, 7] was 994 Min/Eq. The “Min/Eq FD” value [2, 7] was 965 Min/Eq, the “Min to BT” value [2, 8] was 68 min and the “Min to FD” value [2, 8] was 66 min. For the same compound, the “molar capacity at long reaction times (comparison, accounting for molar concentration)” value ([2]; Graph 1 (FIG. 3)) was “greater molar capacity than GIDAc at long reaction times”.

In the case of `CCCCCCCCO` [n-C8OH, n-Octanol], the LogP [3] is given as 3.0.

For Hexylene Glycol [HG], the LogP [3] is given as 0.0.

In the case of `O` [H2O, Water], the LogP [3] is given as −1.4.

In the case of `CC(=O)CC(C)C` [MIBK, methyl isobutyl ketone], the “contribution to the BT capacity (coefficient of best fit equation)” value [1] is reported as 601 minutes per equivalent and the “contribution to the FD capacity (coefficient of best fit equation)” value [1] is reported as 515 minutes per equivalent.

In the case of `OCCOCCO` [DEG, Diethylene Glycol], the “Solution Homogeneity” value [4] is listed as “Fail”, the “Solution Homogeneity” value ([4]; listed as diethylene glycol) is listed as “do not work” and the LogP [3] is listed as −1.5.

In the case of `OCCO` [EG, Ethylene Glycol], the “Solution Homogeneity” value [4] is listed as “Fail”, the “Solution Homogeneity” value ([4]; listed as Ethylene glycol) is listed as “do not work” and the LogP [3] is listed as −1.7.

In the case of `CCCCC(CC)CO` (stereo not shown) [2EHOH, 2-Ethylhexanol], the LogP [3] is given as 2.8.

In the case of `CO` [MeOH, Methanol], the LogP [3] is given as −0.7.

In the case of `CCCCCCCO` [n-C7OH, n-Heptanol], the LogP [3] is given as 2.5.

In the case of `CC(C)N=CC=NC(C)C` [GID, N,N′-di(propan-2-yl)ethane-1,2-diimine], the “contribution to the BT capacity (coefficient of best fit equation)” value [1] is given as 102 minutes per equivalent, the “contribution to the FD capacity (coefficient of best fit equation)” value [1] is given as 92 minutes per equivalent and the LogP [3] is given as 2.3.

In the case of `CC(O)CO` (stereo not shown) [PG, Propylene Glycol], the LogP [3] is given as −1.3.
